Assay results: patent publication US7807701B2, “Dibenzylamine compounds and pharmaceutical use thereof” (Japan Tobacco Inc., priority 2002, dated 2010)
pIC50: −log10 of the molar value. Where a name gives a salt, the structure may show the parent alone.

molecular target: T1, CETP (Homo sapiens, UniProt P11597); assay: Inhibitory effect in vitro on CETP activity in total plasma; format: biochemical; settings: plasma of healthy subject with [3H]CE-HDL3, 37° C., 4 hr; average values
T1 construct: The donor lipoprotein obtained above was added to plasma of healthy subject; from tissue; host or cells: whole plasma of healthy subject
T1 sequence (P11597 18-493): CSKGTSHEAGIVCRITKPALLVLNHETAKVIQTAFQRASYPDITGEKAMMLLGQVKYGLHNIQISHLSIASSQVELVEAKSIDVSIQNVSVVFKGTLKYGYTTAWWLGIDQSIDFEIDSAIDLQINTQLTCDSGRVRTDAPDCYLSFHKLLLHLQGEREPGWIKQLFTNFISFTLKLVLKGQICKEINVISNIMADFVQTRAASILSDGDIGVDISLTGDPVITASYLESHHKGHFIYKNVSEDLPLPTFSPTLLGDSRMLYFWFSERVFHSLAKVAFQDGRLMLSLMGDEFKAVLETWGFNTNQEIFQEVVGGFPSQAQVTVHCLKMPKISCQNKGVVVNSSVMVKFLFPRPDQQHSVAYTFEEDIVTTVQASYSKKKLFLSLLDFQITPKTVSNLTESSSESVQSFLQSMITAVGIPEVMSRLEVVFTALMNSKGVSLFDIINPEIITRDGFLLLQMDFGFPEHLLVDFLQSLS
Method: Potassium bromide (KBr) was added to plasma (40 mL) of healthy subject and the mixture was adjusted to have a specific density d=1.125 g/mL. The mixture was subjected to density gradient centrifugation (227,000×g, 4° C., 17 hr) and a fraction showing a specific density of d>1.125 g/mL (HDL3 fraction) was harvested. The obtained fraction was dialyzed against PBS solution [10 mmol/L Na2HPO4; 10 mmol/L NaH2PO4; 0.15 mol/L NaCl; […] (pH 7.4)]. Then, tritium-labeled cholesterol (37 MBq) was dissolved in 95% ethanol, gradually added to the above-mentioned HDL3 fraction with stirring and incubated at 37° C. for 18 hr. [By this operation, tritium-labeled cholesterol was esterified by the action of lecithin acyl transferase (LCAT) present on the HDL3 surface and taken up into HDL3 as tritium-labeled cholesteryl ester ([^3H]CE)]. After incubation, KBr was added, the mixture was adjusted to have a specific density d=1.21 g/mL, subjected to density gradient centrifugation (227,000×g, 4° C., 17 hr) and a fraction of specific density […] was harvested. The obtained fraction was dialyzed against the aforementioned PBS solution to give HDL3 incorporating [^3H]CE ([^3H]CE-HDL3, specific density: 1.125<d<1.21, specific activity: 10,000 dpm/μL), which was used as a donor lipoprotein.
The donor lipoprotein obtained above was added to plasma of healthy subject to prepare a [^3H]CE-HDL3-containing plasma (1,000 dpm/μL). The compound was dissolved in dimethyl formamide. A solution of the compound or a solvent alone (2 μL) and the [^3H]CE-HDL3-containing plasma (100 μL) were added into a microtube, and this was incubated at 37° C. or 4° C. for 4 hr. After ice-cooling, TBS solution [100 μL, 20 mmol/L Tris; 0.15 mol/L NaCl (pH 7.4)] containing 1 mol/L magnesium chloride and 2% dextran sulfate was added to each microtube and the mixture was thoroughly stirred. After keeping at 4° C. for 30 min, the mixture was centrifuged (10,000×g, 4° C., 10 min), and the radioactivity in the obtained supernatant (HDL fraction) was measured with a scintillation counter. […] The concentration of the compound necessary for inhibiting the CETP activity by 50% was calculated as an IC50 value.

Compared with CCN(C[C@H]1CC[C@H](C(=O)O)CC1)c1cc2c(cc1CN(Cc1cc(C(F)(F)F)cc(C(F)(F)F)c1)c1nnn(C)n1)CCC2 [Example 51, trans-4-{[N-(6-{[N′-[3,5-bis(trifluoromethyl)benzyl]-N′-(2-methyl-2H-tetrazol-5-yl)amino]methyl}indan-5-yl)-N-ethylamino]methyl}cyclohexanecarboxylic acid hydrochloride], CCN(C[C@H]1CC[C@H](C(=O)O)CC1)c1cc2c(cc1CN(Cc1cc(C(F)(F)F)cc(C(F)(F)F)c1)c1nnn(C)n1)CCCC2 [Example 67, trans-4-{[N-(3-{[N′-[3,5-bis(trifluoromethyl)benzyl]-N′-(2-methyl-2H-tetrazol-5-yl)amino]methyl}-5,6,7,8-tetrahydronaphthalen-2-yl)-N-ethylamino]methyl}cyclohexanecarboxylic acid hydrochloride] is 0.20 log units higher in pIC50: 6.39 for the first, 6.59 for the second. The second is the more potent here.

CCN(C[C@H]1CC[C@H](C(=O)O)CC1)c1cc2c(cc1CN(Cc1cc(C#N)cc(C(F)(F)F)c1)c1nnn(C)n1)CCC2 [Example 52, trans-4-{[N-(6-{[N′-(3-cyano-5-trifluoromethylbenzyl)-N′-(2-methyl-2H-tetrazol-5-yl)amino]methyl}indan-5-yl)-N-ethylamino]methyl}cyclohexanecarboxylic acid hydrochloride] and CCN(C[C@H]1CC[C@H](C(=O)O)CC1)c1cc2c(cc1CN(Cc1cc(C#N)cc(C(F)(F)F)c1)c1nnn(C)n1)CCCC2 [Example 68, trans-4-{[N-(3-{[N′-(3-cyano-5-trifluoromethylbenzyl)-N′-(2-methyl-2H-tetrazol-5-yl)amino]methyl}-5,6,7,8-tetrahydronaphthalen-2-yl)-N-ethylamino]methyl}cyclohexanecarboxylic acid hydrochloride] are within 0.2 log units of each other in pIC50: 6.43 for the first, 6.55 for the second.

Compared with CCN(C[C@H]1CC[C@H](C(=O)O)CC1)c1cc2c(cc1CN(Cc1cc(C(F)(F)F)cc(C(F)(F)F)c1)c1cc(C)no1)CCC2 [Example 53, trans-4-{[N-(6-{[N′-[3,5-bis(trifluoromethyl)benzyl]-N′-(3-methylisoxazol-5-yl)amino]methyl}indan-5-yl)-N-ethylamino]methyl}cyclohexanecarboxylic acid hydrochloride], CCN(C[C@H]1CC[C@H](C(=O)O)CC1)c1cc2c(cc1CN(Cc1cc(C(F)(F)F)cc(C(F)(F)F)c1)c1cc(C)no1)CCCC2 [Example 71, trans-4-{[N-(3-{[N′-[3,5-bis(trifluoromethyl)benzyl]-N′-(3-methylisoxazol-5-yl)amino]methyl}-5,6,7,8-tetrahydronaphthalen-2-yl)-N-ethylamino]methyl}cyclohexanecarboxylic acid hydrochloride] is 0.21 log units higher in pIC50: 6.15 for the first, 6.36 for the second. The second is the more potent here.

CCN(CCCCC(=O)OC)c1cc2c(cc1CN(Cc1cc(C#N)cc(C(F)(F)F)c1)c1ccn(C)n1)CCC2 [Example 55, methyl 5-[N-(6-{[N′-(3-cyano-5-trifluoromethylbenzyl)-N′-(1-methyl-1H-pyrazol-3-yl)amino]methyl}indan-5-yl)-N-ethylamino]pentanoate hydrochloride] and CCN(CCCCC(=O)OC)c1cc2c(cc1CN(Cc1cc(C#N)cc(C(F)(F)F)c1)c1ccn(C)n1)CCCC2 [Example 64, methyl 5-[N-(3-{[N′-(3-cyano-5-trifluoromethylbenzyl)-N′-(1-methyl-1H-pyrazol-3-yl)amino]methyl}-5,6,7,8-tetrahydronaphthalen-2-yl)-N-ethylamino]pentanoate hydrochloride] are within 0.2 log units of each other in pIC50: 6.11 for the first, 6.12 for the second.

Going from CCN(CCCCC(=O)O)c1cc2c(cc1CN(Cc1cc(C(F)(F)F)cc(C(F)(F)F)c1)c1ncn(C)n1)CCC2 [Example 58, 5-[N-(6-{[N′-[3,5-bis(trifluoromethyl)benzyl]-N′-(1-methyl-1H-[1,2,4]triazol-3-yl)amino]methyl}indan-5-yl)-N-ethylamino]pentanoic acid hydrochloride] to CCN(CCCCC(=O)O)c1cc2c(cc1CN(Cc1cc(C(F)(F)F)cc(C(F)(F)F)c1)c1ccn(C)n1)CCCC2 [Example 65, 5-[N-(3-{[N′-[3,5-bis(trifluoromethyl)benzyl]-N′-(1-methyl-1H-pyrazol-3-yl)amino]methyl}-5,6,7,8-tetrahydronaphthalen-2-yl)-N-ethylamino]pentanoic acid hydrochloride], the pIC50 rises from 6.15 to 6.54 (0.39 log units). The second is the more potent here.

CCN(C[C@H]1CC[C@H](C(=O)O)CC1)c1cc2c(cc1CN(Cc1cc(C(F)(F)F)cc(C(F)(F)F)c1)c1ncn(C)n1)CCC2 [Example 59, trans-4-{[N-(6-{[N′-[3,5-bis(trifluoromethyl)benzyl]-N′-(1-methyl-1H-[1,2,4]triazol-3-yl)amino]methyl}indan-5-yl)-N-ethylamino]methyl}cyclohexanecarboxylic acid hydrochloride] and CCN(C[C@H]1CC[C@H](C(=O)O)CC1)c1cc2c(cc1CN(Cc1cc(C(F)(F)F)cc(C(F)(F)F)c1)c1ncn(C)n1)CCCC2 [Example 69, trans-4-{[N-(3-{[N′-[3,5-bis(trifluoromethyl)benzyl]-N′-(1-methyl-1H-[1,2,4]triazol-3-yl)amino]methyl}-5,6,7,8-tetrahydronaphthalen-2-yl)-N-ethylamino]methyl}cyclohexanecarboxylic acid hydrochloride] are within 0.2 log units of each other in pIC50: 6.37 for the first, 6.47 for the second.

CCN(C[C@H]1CC[C@H](C(=O)O)CC1)c1cc2c(cc1CN(Cc1cc(C#N)cc(C(F)(F)F)c1)c1ncn(C)n1)CCC2 [Example 60, trans-4-{[N-(6-{[N′-(3-cyano-5-trifluoromethylbenzyl)-N′-(1-methyl-1H-[1,2,4]triazol-3-yl)amino]methyl}indan-5-yl)-N-ethylamino]methyl}cyclohexanecarboxylic acid] and CCN(C[C@H]1CC[C@H](C(=O)O)CC1)c1cc2c(cc1CN(Cc1cc(C#N)cc(C(F)(F)F)c1)c1ncn(C)n1)CCCC2 [Example 70, trans-4-{[N-(3-{[N′-(3-cyano-5-trifluoromethylbenzyl)-N′-(1-methyl-1H-[1,2,4]triazol-3-yl)amino]methyl}-5,6,7,8-tetrahydronaphthalen-2-yl)-N-ethylamino]methyl}cyclohexanecarboxylic acid] are within 0.2 log units of each other in pIC50: 6.11 for the first, 6.27 for the second.

CCN(CCCCC(=O)OC)c1cc2c(cc1CN(Cc1cc(C(F)(F)F)cc(C(F)(F)F)c1)c1ccn(C)n1)CCCC2 [Example 63, methyl 5-[N-(3-{[N′-[3,5-bis(trifluoromethyl)benzyl]-N′-(1-methyl-1H-pyrazol-3-yl)amino]methyl}-5,6,7,8-tetrahydronaphthalen-2-yl)-N-ethylamino]pentanoate hydrochloride] and CCN(CCCCC(=O)O)c1cc2c(cc1CN(Cc1cc(C#N)cc(C(F)(F)F)c1)c1ccn(C)n1)CCCC2 [Example 66, 5-[N-(3-{[N′-(3-cyano-5-trifluoromethylbenzyl)-N′-(1-methyl-1H-pyrazol-3-yl)amino]methyl}-5,6,7,8-tetrahydronaphthalen-2-yl)-N-ethylamino]pentanoic acid hydrochloride] are within 0.2 log units of each other in pIC50: 6.19 for the first, 6.06 for the second.

CCN(C[C@H]1CC[C@H](C(=O)O)CC1)c1cc2c(cc1CN(Cc1cc(C#N)cc(C(F)(F)F)c1)c1cc(C)no1)CCCC2 [Example 72, trans-4-{[N-(3-{[N′-(3-cyano-5-trifluoromethylbenzyl)-N′-(3-methylisoxazol-5-yl)amino]methyl}-5,6,7,8-tetrahydronaphthalen-2-yl)-N-ethylamino]methyl}cyclohexanecarboxylic acid hydrochloride] showed a pIC50 of 6.41.
